{"source": "patent US10513519B2", "about": "“Solid forms of (1S,4S)-4-(2-(((3S,4R)-3-fluorotetrahydro-2H-pyran-4-yl)amino)-8-((2,4,6-trichlorophenyl)amino)-9H-purin-9-yl)-1-methylcyclohexane-1-carboxamide and methods of their use” (Signal Pharmaceuticals, LLC, priority 2016, dated 2019)", "system": "cancer cell lines", "assay": "Multiplexed cytotoxicity assay: cell proliferation (relative cell count IC50, GI50)", "assay_type": "cell-based", "method": "(§1) Cells are grown in RPMI1640, 10% FBS, 2 mM L-alanyl-L-Glutamine, 1 mM Na pyruvate or a special medium in a humidified atmosphere of 5% CO2 at 37° C. Cells are seeded into 384-well plates and incubated in a humidified atmosphere of 5% CO2 at 37° C. Compounds are added 24 h post cell seeding. At the same time, a time zero untreated cell plate is generated. After a 72 hour incubation period, cells are fixed and stained with fluorescently labeled antibodies and nuclear dye to allow visualization of nuclei, apoptotic cells and mitotic cells. Apoptotic cells are detected using an anti-active caspase-3 antibody. Mitotic cells are detected using an anti phospho-histone-3 antibody. Compounds are serially diluted 3.16-fold and assayed over 10 concentrations in a final assay concentration of 0.1% DMSO from the highest test concentration of 10 μM. Automated fluorescence microscopy was carried out using a Molecular Devices ImageXpress Micro XL high-content imager, and images are collected with a 4× objective.\n(§2) Sixteen-bit TIFF images are acquired and analyzed with MetaXpress 5.1.0.41 software. Cell proliferation is measured by the signal intensity of the incorporated nuclear dye. The cell proliferation assay output is referred to as the relative cell count. To determine the cell proliferation end point, the cell proliferation data output is transformed to percentage of control (POC) using the following formula: POC=relative cell count(compound wells)/relative cell count(vehicle wells)×100\n(§3) GI50 is the concentration needed to reduce the observed growth by half. This is the concentration that inhibits the growth to the level midway between growth in untreated cells and the number of cells seeded in the well (Time zero value). The IC50 values are calculated using nonlinear regression to fit data to a sigmoidal 4 point, 4 parameter One-Site dose response model, where: y(fit)=A+[(B−A)/(1+((C/x)^D))].\nas §1, with “In another experiment, cells were grown” for “Cells are grown”, “Cells were” for “Cells are”, “Compounds were” for “Compounds are”, “plate was” for “plate is”, “cells were” for “cells are”, “images were” for “images are”\nas §2, with “images were” for “images are”, “proliferation was” for “proliferation is”, “output was” for “output is”\nas §3, with “GI50 refers to” for “GI50 is”, “This corresponds to” for “This is”, “values were” for “values are”", "key": {"[1]": {"details": "HS611T (Hematopoietic and lymphoid, Lymphoma)"}, "[2]": {"details": "HT (Hematopoietic and lymphoid, Lymphoma)"}, "[3]": {"details": "HUH-6-clone5, HUH6CLONE5 (Liver)"}, "[4]": {"details": "Homo sapiens, 22Rv1, 72 h, 22RV1, Prostate, 72 h"}, "[5]": {"details": "Homo sapiens, 639-V, 639V (Bladder)"}, "[6]": {"details": "Homo sapiens, 647-V, 647V (Bladder)"}, "[7]": {"details": "Homo sapiens, 769-P, 769P (Kidney)"}, "[8]": {"details": "Homo sapiens, 786-0, 786O (Kidney)"}, "[9]": {"details": "Homo sapiens, A101D, A101D (Skin, Melanoma)"}, "[10]": {"details": "Homo sapiens, A 172, A172 (CNS, Glioma)"}, "[11]": {"details": "Homo sapiens, A204, 72 h, A204, Soft Tissue, Sarcoma, 72 h"}, "[12]": {"details": "Homo sapiens, A253, A253 (Head and Neck)"}, "[13]": {"details": "Homo sapiens, A498, A498 (Kidney)"}, "[14]": {"details": "Homo sapiens, A549, 72 h, A549, Lung, NSCLC, 72 h"}, "[15]": {"details": "Homo sapiens, A673, 72 h, A673, Soft Tissue, Sarcoma, 72 h"}, "[16]": {"details": "Homo sapiens, A704, A704 (Kidney)"}, "[17]": {"details": "Homo sapiens, A2058, A2058 (Skin, Melanoma)"}, "[18]": {"details": "Homo sapiens, A-375, A375 (Skin, Melanoma)"}, "[19]": {"details": "Homo sapiens, A-427, 72 h, A427, Lung, NSCLC, 72 h"}, "[20]": {"details": "Homo sapiens, A-431, A431 (Skin, Carcinoma)"}, "[21]": {"details": "Homo sapiens, ACHN, ACHN (Kidney)"}, "[22]": {"details": "Homo sapiens, AN3-CA, 72 h, AN3CA, Female GU, Uterus"}, "[23]": {"details": "Homo sapiens, ARH-77, 72 h, ARH77, Hematopoietic and lymphoid, Myeloma, 72 h"}, "[24]": {"details": "Homo sapiens, ASPC1, 72 h, ASPC1, Pancreas, 72 h"}, "[25]": {"details": "Homo sapiens, AU565, AU565 (Breast)"}, "[26]": {"details": "Homo sapiens, BE(2)-C, 72 h, BE2C, CNS, Neuroblastoma"}, "[27]": {"details": "Homo sapiens, BFTC-905, BFTC905 (Bladder)"}, "[28]": {"details": "Homo sapiens, BHT-101, 72 h, BHT101, Endocrine, Thyroid, 72 h"}, "[29]": {"details": "Homo sapiens, BPH-1, 72 h, BPH1, Prostate, 72 h"}, "[30]": {"details": "Homo sapiens, BT-20, BT20 (Breast)"}}}
{"smiles": "C[C@]1(C(N)=O)CC[C@@H](n2c(Nc3c(Cl)cc(Cl)cc3Cl)nc3cnc(N[C@@H]4CCOC[C@H]4F)nc32)CC1", "note": "[Compound 1, cis-4-[2-{[(3S,4R)-3-fluorooxan-4-yl]amino}-8-(2,4,6-trichloroanilino)-9H-purin-9-yl]-1-methylcyclohexane-1-carboxamide]", "values": [{"measurement": "IC50", "setting": "HLE (Liver)", "result": 1040, "unit": "nM"}, {"measurement": "GI50", "setting": "HLF (Liver)", "result": 4760, "unit": "nM"}, {"measurement": "IC50", "setting": "HLF (Liver)", "result": 6470, "unit": "nM"}, {"measurement": "GI50", "setting": "[1]", "result": 10.6, "unit": "nM"}, {"measurement": "IC50", "setting": "[1]", "result": 12.3, "unit": "nM"}, {"measurement": "GI50", "setting": "HS688AT (Skin, Melanoma)", "result": 82.2, "unit": "nM"}, {"measurement": "IC50", "setting": "HS688AT (Skin, Melanoma)", "result": "> 10000", "unit": "nM"}, {"measurement": "GI50", "setting": "HS852T (Skin, Melanoma)", "result": 56.4, "unit": "nM"}, {"measurement": "IC50", "setting": "HS852T (Skin, Melanoma)", "result": 715, "unit": "nM"}, {"measurement": "GI50", "setting": "HS895T (Skin, Melanoma)", "result": "> 10000", "unit": "nM"}, {"measurement": "IC50", "setting": "HS895T (Skin, Melanoma)", "result": "> 10000", "unit": "nM"}, {"measurement": "GI50", "setting": "HS934T (Skin, Melanoma)", "result": 5.2, "unit": "nM"}, {"measurement": "IC50", "setting": "HS934T (Skin, Melanoma)", "result": "> 10000", "unit": "nM"}, {"measurement": "GI50", "setting": "HS936TC1 (Skin, Melanoma)", "result": 18.4, "unit": "nM"}, {"measurement": "IC50", "setting": "HS936TC1 (Skin, Melanoma)", "result": 25.8, "unit": "nM"}, {"measurement": "GI50", "setting": "HT3 (Female GU, Cervix)", "result": 856, "unit": "nM"}, {"measurement": "IC50", "setting": "HT3 (Female GU, Cervix)", "result": 3210, "unit": "nM"}, {"measurement": "GI50", "setting": "[2]", "result": 8300, "unit": "nM"}, {"measurement": "IC50", "setting": "[2]", "result": "> 10000", "unit": "nM"}, {"measurement": "GI50", "setting": "[3]", "result": 145, "unit": "nM"}, {"measurement": "IC50", "setting": "[3]", "result": 354, "unit": "nM"}, {"measurement": "GI50", "setting": "[4]", "result": 2660, "unit": "nM"}, {"measurement": "IC50", "setting": "[4]", "result": 5580, "unit": "nM"}, {"measurement": "GI50", "setting": "[5]", "result": 184, "unit": "nM"}, {"measurement": "IC50", "setting": "[5]", "result": 206, "unit": "nM"}, {"measurement": "GI50", "setting": "[6]", "result": 6930, "unit": "nM"}, {"measurement": "IC50", "setting": "[6]", "result": 7820, "unit": "nM"}, {"measurement": "GI50", "setting": "[7]", "result": 194, "unit": "nM"}, {"measurement": "IC50", "setting": "[7]", "result": 255, "unit": "nM"}, {"measurement": "GI50", "setting": "[8]", "result": 2040, "unit": "nM"}, {"measurement": "IC50", "setting": "[8]", "result": 6920, "unit": "nM"}, {"measurement": "GI50", "setting": "[9]", "result": 42.4, "unit": "nM"}, {"measurement": "IC50", "setting": "[9]", "result": 81.5, "unit": "nM"}, {"measurement": "GI50", "setting": "[10]", "result": 64.9, "unit": "nM"}, {"measurement": "IC50", "setting": "[10]", "result": 139, "unit": "nM"}, {"measurement": "GI50", "setting": "[11]", "result": "> 10000", "unit": "nM"}, {"measurement": "IC50", "setting": "[11]", "result": "> 10000", "unit": "nM"}, {"measurement": "GI50", "setting": "[12]", "result": 171, "unit": "nM"}, {"measurement": "IC50", "setting": "[12]", "result": "> 10000", "unit": "nM"}, {"measurement": "GI50", "setting": "[13]", "result": 522, "unit": "nM"}, {"measurement": "IC50", "setting": "[13]", "result": 808, "unit": "nM"}, {"measurement": "GI50", "setting": "[14]", "result": 102, "unit": "nM"}, {"measurement": "IC50", "setting": "[14]", "result": 128, "unit": "nM"}, {"measurement": "GI50", "setting": "[15]", "result": 3750, "unit": "nM"}, {"measurement": "IC50", "setting": "[15]", "result": 3870, "unit": "nM"}, {"measurement": "GI50", "setting": "[16]", "result": "> 10000", "unit": "nM"}, {"measurement": "IC50", "setting": "[16]", "result": "> 10000", "unit": "nM"}, {"measurement": "GI50", "setting": "[17]", "result": 212, "unit": "nM"}, {"measurement": "IC50", "setting": "[17]", "result": 288, "unit": "nM"}, {"measurement": "GI50", "setting": "[18]", "result": 6.5, "unit": "nM"}, {"measurement": "IC50", "setting": "[18]", "result": 7.2, "unit": "nM"}, {"measurement": "GI50", "setting": "[19]", "result": 47.5, "unit": "nM"}, {"measurement": "IC50", "setting": "[19]", "result": 76.3, "unit": "nM"}, {"measurement": "GI50", "setting": "[20]", "result": 228, "unit": "nM"}, {"measurement": "IC50", "setting": "[20]", "result": 311, "unit": "nM"}, {"measurement": "GI50", "setting": "[21]", "result": 306, "unit": "nM"}, {"measurement": "IC50", "setting": "[21]", "result": 550, "unit": "nM"}, {"measurement": "GI50", "setting": "[22]", "result": 713, "unit": "nM"}, {"measurement": "IC50", "setting": "[22]", "result": 7030, "unit": "nM"}, {"measurement": "GI50", "setting": "[23]", "result": "> 10000", "unit": "nM"}, {"measurement": "IC50", "setting": "[23]", "result": "> 10000", "unit": "nM"}, {"measurement": "GI50", "setting": "[24]", "result": 30.8, "unit": "nM"}, {"measurement": "IC50", "setting": "[24]", "result": "> 10000", "unit": "nM"}, {"measurement": "GI50", "setting": "[25]", "result": 8150, "unit": "nM"}, {"measurement": "IC50", "setting": "[25]", "result": 8770, "unit": "nM"}, {"measurement": "GI50", "setting": "[26]", "result": 146, "unit": "nM"}, {"measurement": "IC50", "setting": "[26]", "result": 210, "unit": "nM"}, {"measurement": "GI50", "setting": "[27]", "result": 51.5, "unit": "nM"}, {"measurement": "IC50", "setting": "[27]", "result": 54.6, "unit": "nM"}, {"measurement": "GI50", "setting": "[28]", "result": 37.6, "unit": "nM"}, {"measurement": "IC50", "setting": "[28]", "result": 41.2, "unit": "nM"}, {"measurement": "GI50", "setting": "[29]", "result": 57.8, "unit": "nM"}, {"measurement": "IC50", "setting": "[29]", "result": 67.5, "unit": "nM"}, {"measurement": "GI50", "setting": "[30]", "result": 8360, "unit": "nM"}, {"measurement": "IC50", "setting": "[30]", "result": "> 10000", "unit": "nM"}]}
